Molecular target: human PSMA (Homo sapiens (Human), UniProt Q04609)
Experiment: Enzymatic assay for in vitro evaluation of PSMA inhibitors (fluorescent assay of PSMA activity, NAAG substrate, OPA detection of glutamate)
Type: biochemical
Conditions: not given

Chain of human PSMA (Q04609 whole entry): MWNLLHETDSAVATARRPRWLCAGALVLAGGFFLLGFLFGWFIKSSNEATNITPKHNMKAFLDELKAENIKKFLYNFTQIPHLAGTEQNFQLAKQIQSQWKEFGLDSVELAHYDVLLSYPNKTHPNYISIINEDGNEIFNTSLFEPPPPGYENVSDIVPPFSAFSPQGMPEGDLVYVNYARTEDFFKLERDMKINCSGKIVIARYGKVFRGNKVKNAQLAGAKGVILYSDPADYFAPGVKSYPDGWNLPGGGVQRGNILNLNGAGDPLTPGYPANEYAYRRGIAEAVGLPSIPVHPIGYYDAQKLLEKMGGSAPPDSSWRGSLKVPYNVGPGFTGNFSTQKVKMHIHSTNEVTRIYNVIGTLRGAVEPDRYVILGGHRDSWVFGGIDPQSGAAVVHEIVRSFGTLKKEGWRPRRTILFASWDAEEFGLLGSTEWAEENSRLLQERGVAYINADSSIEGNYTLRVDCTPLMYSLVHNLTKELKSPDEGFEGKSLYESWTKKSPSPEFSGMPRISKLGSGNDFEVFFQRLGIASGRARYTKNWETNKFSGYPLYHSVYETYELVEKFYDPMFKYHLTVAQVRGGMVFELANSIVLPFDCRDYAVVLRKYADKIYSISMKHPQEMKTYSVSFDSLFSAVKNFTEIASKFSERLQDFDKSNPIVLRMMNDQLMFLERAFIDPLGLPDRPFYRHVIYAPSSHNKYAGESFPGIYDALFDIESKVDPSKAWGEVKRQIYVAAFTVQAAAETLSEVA

SMILES | Ki [nM]
CN(C(=O)N[C@@H](CCC(=O)O)C(=O)O)[C@@H](CCCCNC(=O)CCCc1ccc(-n2cc(CCCF)nn2)cc1)C(=O)O [P103] | 235
CN(C(=O)N[C@@H](CCC(=O)O)C(=O)O)[C@@H](CCCCNC(=O)c1ccc(F)nc1)C(=O)O [P133, (S)-2-(3-((S)-1-Carboxy-5-(6-fluoronicotinamide)pentyl)-3-methylureido)-pentanedioic Acid] | 125

Same assay, conditions: compound at 10 μM

SMILES | PSMA Blkg % (10 μM) [%]
O=C(O)CC[C@@H](C(=O)O)N1C(=O)/C(=C(\O)CCCCn2cc(CCCF)nn2)C(=O)N(Cc2ccccc2)C1=O [P102, (S,Z)-2-(3-Benzyl-5-(5-(4-(3-fluoropropyl)-1H-1,2,3-triazol-1-yl)-1-hydroxypentylidene)-2,4,6-trioxotetrahydropyrimidin-1(2H)-yl)pentanedioic Acid] | 0
CN(C(=O)N[C@@H](CCC(=O)O)C(=O)O)[C@@H](CCCCNC(=O)CCCc1ccc(-n2cc(CCCF)nn2)cc1)C(=O)O [P103] | 91
CCC1(CC)C(=O)N([C@@H](CCCCN(Cc2ccc([N+](=O)[O-])cc2)Cc2ccc([N+](=O)[O-])cc2)C(=O)O)C(=O)N([C@@H](CCC(=O)O)C(=O)O)C1=O [P104, (S)-2-(3-((S)-5-(Bis(4-nitrobenzyl)amino)-1-carboxypentyl)-5,5-diethyl-2,4,6-trioxotetrahydropyrimidin-1(2H)-yl)pentanedioic Acid] | 7
CCC1(CC)C(=O)N([C@@H](CCCCN(Cc2ccc([N+](=O)[O-])cc2)C(=O)CCCCn2cc(CCCF)nn2)C(=O)O)C(=O)N([C@@H](CCC(=O)O)C(=O)O)C1=O [P105, (S)-2-(3-((S)-1-Carboxy-5-(5-(4-(3-fluoropropyl)-1H-1,2,3-triazol-1-yl)-N-(4-nitrobenzyl)pentanamido)pentyl)-5,5-diethyl-2,4,6-trioxotetrahydropyrimidin-1(2H)-yl)pentanedioic Acid] | 5
O=C(O)CC[C@@H](C(=O)O)N1C(=O)N([C@@H](CCCCNC(=O)OCc2ccccc2)C(=O)O)C(=O)C2(CCC2)C1=O [P106, (2S)-2-(8-((S)-5-(Benzyloxycarbonylamino)-1-carboxypentyl)-5,7,9-trioxo-6,8-diazaspiro[3.5]nonan-6-yl)pentanedioic Acid] | 67
CCC1(CC)C(=O)N([C@@H](CCCCNS(=O)(=O)c2ccc([N+](=O)[O-])cc2)C(=O)O)C(=O)N([C@@H](CCC(=O)O)C(=O)O)C1=O [P107, (S)-2-(3-((S)-1-Carboxy-5-(4-nitrophenylsulfonamido)pentyl)-5,5-diethyl-2,4,6-trioxotetrahydropyrimidin-1(2H)-yl)pentanedioic Acid] | 19
CCC1(CC)C(=O)N([C@@H](CCCCNC(=O)NCc2ccccc2)C(=O)O)C(=O)N([C@@H](CCC(=O)O)C(=O)O)C1=O [P108, (S)-2-(3-((S)-5-(3-benzylureido)-1-carboxypentyl)-5,5-diethyl-2,4,6-trioxotetrahydropyrimidin-1(2H)-yl)pentanedioic Acid] | 11
O=C(O)CCC(C(=O)O)n1cc(COc2ccc3ccc(=O)oc3c2)nn1 (centres unmarked) [P109, 2-(4-(((2-oxo-2H-chromen-7-yl)oxy)methyl)-1H-1,2,3-triazol-1-yl)pentanedioic Acid] | 24
CCC1(CC)C(=O)N([C@@H](CCCCNCc2ccc([N+](=O)[O-])cc2)C(=O)O)C(=O)N([C@@H](CCC(=O)O)C(=O)O)C1=O [P110, (S)-2-(3-((S)-1-carboxy-5-(4-nitrobenzylamino)pentyl)-5,5-diethyl-2,4,6-trioxotetrahydropyrimidin-1(2H)-yl)pentanedioic Acid] | 8
O=C(O)CC[C@H](NC(=O)CCN(O)C(=O)CCCc1ccc(-n2cc(CCCF)nn2)cc1)C(=O)O [P111, (S)-2-(3-(4-(4-(4-(3-Fluoropropyl)-1H-1,2,3-triazol-1-yl)phenyl)-N-hydroxybutanamido)propanamido)pentanedioic Acid] | 9
CCC1(CC)C(=O)N([C@@H](CCCCNCc2ccc(OC)cc2)C(=O)O)C(=O)N([C@@H](CCC(=O)O)C(=O)O)C1=O [P112, (S)-2-(3-((S)-1-Carboxy-5-(4-methoxybenzylamino)pentyl)-5,5-diethyl-2,4,6-trioxotetrahydropyrimidin-1(2H)-yl)pentanedioic Acid] | 4
CCC1(CC)C(=O)N([C@@H](CCCCNC(=O)c2ccc(F)nc2)C(=O)O)C(=O)N([C@@H](CCC(=O)O)C(=O)O)C1=O [P113, (S)-2-(3-((S)-1-Carboxy-5-(6-fluoronicotinamido)pentyl)-5,5-diethyl-2,4,6-trioxotetrahydropyrimidin-1(2H)-yl)pentanedioic Acid] | 11
CCC1(CC)C(=O)N([C@@H](CCCCNC/C=C/c2ccc(-n3cc(CCCF)nn3)cc2)C(=O)O)C(=O)N([C@@H](CCC(=O)O)C(=O)O)C1=O [P114, (S)-2-(3-((S)-1-Carboxy-5-((E)-3-(4-(4-(3-fluoropropyl)-1H-1,2,3-triazol-1-yl)phenyl)allylamino)pentyl)-5,5-diethyl-2,4,6-trioxotetrahydropyrimidin-1(2H)-yl)pentanedioic Acid] | 8
O=C(O)CC[C@H](NC(=O)C[C@H](NC(=O)CCCc1ccc(-n2cc(CCCF)nn2)cc1)C(=O)O)C(=O)O [P115] | 36
O=C(O)CC[C@H](NC(=O)C[C@H](NC(=O)CCCNC(=O)OCc1ccccc1)C(=O)O)C(=O)O [P116, (10S,14S)-3,8,12-Trioxo-1-phenyl-2-oxa-4,9,13-triazahexadecane-10,14,16-tricarboxylic Acid] | 31
O=C(O)CC[C@@H](C(=O)O)N1C(=O)NC(=O)/C(=C(/O)CCC(NC(=O)OCC2c3ccccc3-c3ccccc32)C(=O)O)C1=O (some centres unmarked) [P117] | 18
CCC1(CC)C(=O)N([C@@H](CCCCNC(=O)OCc2ccc([N+](=O)[O-])cc2)C(=O)O)C(=O)N([C@@H](CCC(=O)O)C(=O)O)C1=O [P118, (S)-2-(3-((S)-1-Carboxy-5-((4-nitrobenzyloxy)carbonylamino)pentyl)-5,5-diethyl-2,4,6-trioxotetrahydropyrimidin-1(2H)-yl)pentanedioic Acid] | 13

SMILES | PSMA Blkg % (10 μM) [%]
O=C(O)CC[C@H](NC(=O)C[C@H](NC(=O)CCCCNC(=O)c1ccccc1)C(=O)O)C(=O)O [P119, (S)-2-((S)-3-(5-Benzamidopentanamido)-3-carboxypropanamido)pentanedioic Acid] | 26
O=C(O)CC[C@@H](C(=O)O)N1C(=O)CC(=O)N([C@@H](CCCCNC(=O)OCc2ccc([N+](=O)[O-])cc2)C(=O)O)C1=O [P120, (S)-2-(3-((S)-1-Carboxy-5-((4-nitrobenzyloxy)carbonylamino)pentyl)-2,4,6-trioxotetrahydropyrimidin-1(2H)-yl)pentanedioic Acid] | 15
NC(=O)CCC(C(=O)O)n1cc(COc2ccc3ccc(=O)oc3c2)nn1 (centres unmarked) [P121, 5-Amino-5-oxo-2-(4-(((2-oxo-2H-chromen-7-yl)oxy)methyl)-1H-1,2,3-triazol-1-yl)pentanoic Acid] | 7
COc1ccc(CCCC(=O)N[C@@H](CC(=O)N[C@@H](CCC(=O)O)C(=O)O)C(=O)O)cc1 [P122, (S)-2-((S)-3-Carboxy-3-(4-(4-methoxyphenyl)butanamido)propanamido)-pentanedioic Acid] | 18
O=C(O)CC[C@H](NC(=O)C[C@H](NC(=O)CCCc1ccc([N+](=O)[O-])cc1)C(=O)O)C(=O)O [P123, (S)-2-((S)-3-Carboxy-3-(4-(4-nitrophenyl)butanamido)propanamido)pentanedioic Acid] | 17
O=C(O)CC[C@@H](C(=O)O)N1C(=O)CC(=O)NC1=O [P126] | 12
Nc1ccc(/C(O)=C2\C(=O)NC(=O)N([C@@H](CCC(=O)O)C(=O)O)C2=O)cc1 [P127, (S,Z)-2-(5-((4-Aminophenyl)(hydroxy)methylene)-2,4,6-trioxotetrahydropyrimidin-1(2H)-yl)pentanedioic Acid] | 10
O=C(O)CC[C@@H](C(=O)O)N1C(=O)CC(=O)N([C@@H](CCCCNS(=O)(=O)c2ccc([N+](=O)[O-])cc2)C(=O)O)C1=O [P128, (S)-2-(3-((S)-1-Carboxy-5-(4-nitrophenylsulfonamido)pentyl)-2,4,6-trioxotetrahydropyrimidin-1(2H)-yl)pentanedioic Acid] | 12
O=C(O)CC[C@@H](C(=O)O)N1C(=O)CC(=O)N([C@@H](CCCCNC(=O)NCc2ccccc2)C(=O)O)C1=O [P129, (S)-2-(3-((S)-5-(3-Benzylureido)-1-carboxypentyl)-2,4,6-trioxotetrahydropyrimidin-1(2H)-yl)pentanedioic Acid] | 10
CCC1(CC)C(=O)N([C@@H](CCCCNC(=S)Nc2ccc(-n3cc(CCCF)nn3)cc2)C(=O)O)C(=O)N([C@@H](CCC(=O)O)C(=O)O)C1=O [P130, (S)-2-(3-((S)-1-Carboxy-5-(3-(4-(4-(3-fluoropropyl)-1H-1,2,3-triazol-1-yl)phenyl)thioureido)pentyl)-5,5-diethyl-2,4,6-trioxotetrahydropyrimidin-1 (2H)-yl)pentanedioic Acid] | 10
O=C(O)CC[C@H](NC(=O)CN(O)C(=O)CCCCNC(=O)c1ccccc1)C(=O)O [P131, (S)-2-(2-(5-Benzamido-N-hydroxypentanamido)acetamido)pentanedioic Acid] | 6
COc1ccc(CCCC(=O)N(O)CC(=O)N[C@@H](CCC(=O)O)C(=O)O)cc1 [P132, (S)-2-(2-(N-Hydroxy-4-(4-methoxyphenyl)butanamido)acetamido)pentanedioic Acid] | 17
CN(C(=O)N[C@@H](CCC(=O)O)C(=O)O)[C@@H](CCCCNC(=O)c1ccc(F)nc1)C(=O)O [P133, (S)-2-(3-((S)-1-Carboxy-5-(6-fluoronicotinamide)pentyl)-3-methylureido)-pentanedioic Acid] | 95
Nc1ccc(CCCC(=O)N(O)CC(=O)N[C@@H](CCC(=O)O)C(=O)O)cc1 [P134, (S)-2-(2-(4-(4-Aminophenyl)-N-hydroxybutanamido)acetamido)pentanedioic Acid] | 37
O=C(O)CC[C@@H](NC(=O)N(O)[C@@H](CC(=O)NCc1ccccc1)C(=O)O)C(=O)O [P135, (R)-2-(3-((S)-3-(Benzylamino)-1-carboxy-3-oxopropyl)-3-hydroxyureido)pentanedioic Acid] | 42
[N-]=[N+]=Nc1ccc(CCCC(=O)NC(Cc2cn(C(CCC(=O)O)C(=O)O)nn2)C(=O)O)cc1 (centres unmarked) [P137] | 3
